Measured values: patent US7253171B2 (Laboratorios Almirall, S.A., priority 2001, dated 2007)

target: T1, α4β1 integrin (Homo sapiens, UniProt P05556+P13612); test: U-937 cell adhesion to human VCAM-1 (α4β1 binding assay); assay type: cell-based; settings: U-937 cells, immobilized human VCAM-1; read-out: IC50 values in the α4β1 assays
T1 construct: endogenous in cells; host or cells: U-937 cells
Method: U-937 Cell Adhesion to Human VCAM-1 (α4β1 Binding Assay)
Recombinant human soluble VCAM-1 (R&D Systems Ltd., UK) at 2 μg/ml in PBS was immobilized overnight onto microtiter plates. Unbound VCAM-1 was washed away and VCAM-1 coated plates were blocked with bovine serum albumin (BSA) 2,5% in PBS for 2 h at room temperature. U-937 cells were labelled with 5-carboxyfluorescein diacetate (5-CFDA) in order to detect bound cells to the wells. Test compounds were added to the wells followed by U-937 cells and the adhesion assay was performed for 1 h at 37° C. Following incubation, the wells were emptied and washed. Inhibition of binding was measured by the quantity of fluorescence bound to the plate for each of the various concentrations of test compound, as well as for controls containing no test compound, with a Cytofluor 2300 fluorescence measurement system.

T1 sequence (P13612 34-1032): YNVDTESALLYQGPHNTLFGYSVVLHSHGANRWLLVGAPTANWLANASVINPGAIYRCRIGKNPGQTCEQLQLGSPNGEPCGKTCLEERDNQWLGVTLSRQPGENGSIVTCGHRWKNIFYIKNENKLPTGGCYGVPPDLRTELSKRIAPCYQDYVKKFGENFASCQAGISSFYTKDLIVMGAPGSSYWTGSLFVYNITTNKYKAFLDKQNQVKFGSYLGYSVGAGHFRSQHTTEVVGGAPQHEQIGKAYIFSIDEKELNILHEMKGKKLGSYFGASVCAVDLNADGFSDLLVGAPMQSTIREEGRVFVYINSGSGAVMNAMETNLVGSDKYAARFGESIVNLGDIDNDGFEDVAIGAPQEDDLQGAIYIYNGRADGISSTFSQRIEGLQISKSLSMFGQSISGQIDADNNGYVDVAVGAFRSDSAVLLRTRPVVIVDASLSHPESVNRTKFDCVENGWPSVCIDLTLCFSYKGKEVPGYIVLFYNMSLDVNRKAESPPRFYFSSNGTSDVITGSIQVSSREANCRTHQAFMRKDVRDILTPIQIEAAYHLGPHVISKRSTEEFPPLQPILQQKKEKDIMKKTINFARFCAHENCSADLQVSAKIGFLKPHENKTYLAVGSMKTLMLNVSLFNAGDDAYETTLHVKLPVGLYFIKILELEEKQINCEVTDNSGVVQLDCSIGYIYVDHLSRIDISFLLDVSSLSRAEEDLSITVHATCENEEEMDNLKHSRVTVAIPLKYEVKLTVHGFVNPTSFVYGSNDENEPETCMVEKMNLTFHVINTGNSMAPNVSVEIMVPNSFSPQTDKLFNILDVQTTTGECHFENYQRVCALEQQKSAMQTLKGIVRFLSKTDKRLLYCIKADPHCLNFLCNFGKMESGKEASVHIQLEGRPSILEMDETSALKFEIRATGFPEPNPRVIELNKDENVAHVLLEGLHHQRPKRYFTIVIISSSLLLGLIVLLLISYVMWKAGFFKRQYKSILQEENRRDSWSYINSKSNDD
T1 sequence (P05556 21-798): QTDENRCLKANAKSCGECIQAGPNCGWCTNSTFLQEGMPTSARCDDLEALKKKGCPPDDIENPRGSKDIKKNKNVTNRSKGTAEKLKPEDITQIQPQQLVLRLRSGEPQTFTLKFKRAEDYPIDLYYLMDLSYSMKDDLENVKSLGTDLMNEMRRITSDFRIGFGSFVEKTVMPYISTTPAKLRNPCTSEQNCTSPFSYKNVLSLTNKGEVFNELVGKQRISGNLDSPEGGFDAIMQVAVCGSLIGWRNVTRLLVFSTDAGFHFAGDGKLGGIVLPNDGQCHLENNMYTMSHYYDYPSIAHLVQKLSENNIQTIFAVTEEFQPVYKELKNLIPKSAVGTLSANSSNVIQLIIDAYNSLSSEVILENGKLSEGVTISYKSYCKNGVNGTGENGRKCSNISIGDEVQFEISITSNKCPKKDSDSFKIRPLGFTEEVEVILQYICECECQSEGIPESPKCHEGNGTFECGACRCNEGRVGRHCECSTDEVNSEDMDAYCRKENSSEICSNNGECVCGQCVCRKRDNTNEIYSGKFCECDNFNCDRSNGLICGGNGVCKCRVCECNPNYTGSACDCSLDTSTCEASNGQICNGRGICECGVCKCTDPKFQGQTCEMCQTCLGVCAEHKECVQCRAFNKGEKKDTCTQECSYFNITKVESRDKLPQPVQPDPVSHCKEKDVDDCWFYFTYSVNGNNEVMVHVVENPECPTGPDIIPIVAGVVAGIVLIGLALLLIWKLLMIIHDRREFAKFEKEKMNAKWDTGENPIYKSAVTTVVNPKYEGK

| Structure (SMILES) | IC50 [µM] |
| --- | --- |
| CN(C(=O)c1ccccc1N(CC1CCCCC1)C(=O)N[C@@H](Cc1ccc(NC(=O)c2c(Cl)cncc2Cl)cc1)C(=O)O)C1CCCCC1 [Example 86] | < 0.1 |
| O=C(Nc1ccccc1S(=O)(=O)N1CCCCC1)N[C@@H](Cc1ccc(Nc2nccc3ccncc23)cc1)C(=O)O [Example 130, (S)-3-[4-([2,7]Naphthyridin-1ylamino)-phenyl]-2-{3-[2-(piperidine-1-sulfonyl)phenyl]ureido}propionic acid] | < 0.1 |
| O=C(Nc1ccccc1S(=O)(=O)c1ccccc1)N[C@@H](Cc1ccc(NC(=O)c2c(Cl)cccc2Cl)cc1)C(=O)O [Example 36, (S)-2-[3-(2-Benzenesulfonylphenyl)ureido]-3-[4-(2,6-dichlorobenzoylamino)phenyl]propionic acid] | < 0.1 |
| O=C(Nc1ccccc1Sc1c(Cl)cncc1Cl)N[C@@H](Cc1ccc(NC(=O)c2c(Cl)cncc2Cl)cc1)C(=O)O [Example 98, (S)-3-(4-{[1-(3,5-Dichloropyridin-4-yl)methanoyl]amino}phenyl)-2-{3-[2-(3,5-dichloropyridin-4-ylsulfanyl)phenyl]ureido}propionic acid] | < 0.1 |
| O=C(Nc1ccccc1S(=O)(=O)c1ccccc1)N[C@@H](Cc1ccc(OC(=O)c2c(Cl)cncc2Cl)cc1)C(=O)O [Example 116, 3,5-Dichloroisonicotinic acid 4-{(S)-2-[3-(2-benzenesulfonylphenyl)ureido]-2-carboxyethyl}phenyl ester] | < 0.1 |
| O=C(Nc1ccccc1S(=O)(=O)c1ccccc1)N[C@@H](Cc1ccc(Nc2nccc3cnccc23)cc1)C(=O)O [Example 122, (S)-2-[3-(2-Benzenesulfonylphenyl)ureido]-3-[4-([2,6]naphthyridin-1-ylamino)phenyl]propionic acid] | < 0.1 |
| Cc1csc2nc(Sc3ccccc3NC(=O)N[C@@H](Cc3ccc(NC(=O)c4c(Cl)cncc4Cl)cc3)C(=O)O)cnc12 [Example 96, (S)-3-(4-{[1-(3,5-Dichloropyridin-4-yl)methanoyl]amino}phenyl)-2-(3-[2-(7-methylthieno[2,3-b]pyrazin-3-ylsulfanyl)phenyl]ureido}propionic acid] | < 0.1 |
| CN(C(=O)c1ccccc1NC(=O)N[C@@H](Cc1ccc(NC(=O)c2c(Cl)cccc2Cl)cc1)C(=O)O)C1CCCCC1 [Example 2] | < 0.1 |
| O=C(Nc1ccccc1S(=O)(=O)c1ccccc1)N[C@@H](Cc1ccc(NCc2c(Cl)cncc2Cl)cc1)C(=O)O [Example 110, (S)-2-[3-(2-Benzenesulfonylphenyl)ureido]-3-{4-[(3,5-dichloropyridin-4-ylmethyl)amino]phenyl}propionic acid] | < 0.1 |
| O=C(Nc1cccnc1S(=O)(=O)c1ccccc1)N[C@@H](Cc1ccc(NC(=O)c2c(Cl)cccc2Cl)cc1)C(=O)O [Example 58, (S)-2-[3-(2-Benzenesulfonylpyridin-3-yl)ureido]-3-[4-(2,6-dichlorobenzoylamino)phenyl]propionic acid] | < 0.1 |
| CN(C(=O)N[C@@H](Cc1ccc(NC(=O)c2c(Cl)cncc2Cl)cc1)C(=O)O)c1ccccc1Cc1ccccc1 [Example 79, (S)-2-[3-(2-Benzylphenyl)-3-methylureido]-3-(4-{[1-(3,5-dichloropyridin-4-yl)methandyl]amino}-phenyl)propionic acid] | < 0.1 |
| CN(C(=O)N[C@@H](Cc1ccc(NC(=O)c2c(Cl)cncc2Cl)cc1)C(=O)O)c1ccccc1S(=O)(=O)N1CCCCC1 [Example 88, (S)-3-(4-{[1-(3,5-Dichloropyridin-4-yl)methyanoyl]amino}phenyl)-2-{3-methyl-3-[2-(piperidine-1-sulfonyl)phenyl]ureido}propionic acid.] | < 0.1 |
| CN(C(=O)c1ccccc1N(Cc1ccccc1)C(=O)N[C@@H](Cc1ccc(NC(=O)c2c(Cl)cncc2Cl)cc1)C(=O)O)C1CCCCC1 [Example 85] | < 0.1 |
| CN(C(=O)N[C@@H](Cc1ccc(NC(=O)c2c(Cl)cncc2Cl)cc1)C(=O)O)c1ccccc1C(=O)N(C)C1CCCCC1 [Example 81] | < 0.1 |
| CCCCCN(C(=O)N[C@@H](Cc1ccc(NC(=O)c2c(Cl)cncc2Cl)cc1)C(=O)O)c1ccccc1C(=O)N(C)C1CCCCC1 [Example 84] | < 0.1 |
| O=C(Nc1ccccc1S(=O)(=O)Nc1ccccc1)N[C@@H](Cc1ccc(NC(=O)c2c(Cl)cccc2Cl)cc1)C(=O)O [Example 22, (S)-3-[4-(2,6-Dichlorobenzoylamino)phenyl]-2-[3-(2-phenylsulfamoylphenyl)ureido]propionic acid] | < 0.1 |
| CCCCN(Cc1cccs1)S(=O)(=O)c1ccccc1NC(=O)N[C@@H](Cc1ccc(NC(=O)c2c(Cl)cccc2Cl)cc1)C(=O)O [Example 20, (S)-2-{3-[2-(Butylthiophen-2-ylmethylsulfamoyl)phenyl]ureido}-3-[4-(2,6-dichlorobenzoylamino)phenyl]propionic acid] | < 0.1 |

| Structure (SMILES) | IC50 [µM] |
| --- | --- |
| O=C(Nc1ccccc1S(=O)(=O)c1ccccc1)N[C@@H](Cc1ccc(Oc2nccc3cnccc23)cc1)C(=O)O [Example 134, (S)-2-[3-(2-Benzenesulfonylphenyl)ureido]-3-[4-([2,6]naphthyridin-1-yloxy)phenyl]propionic acid] | < 0.1 |
| CN(C(=S)N[C@@H](Cc1ccc(NC(=O)c2c(Cl)cncc2Cl)cc1)C(=O)O)c1ccccc1C(=O)N(C)C1CCCCC1 [Example 146] | < 0.1 |
| O=C(Nc1ccccc1S(=O)(=O)c1ccccc1)N[C@@H](Cc1ccc(NC(=O)c2c(Cl)cncc2Cl)cc1)C(=O)O [Example 70, (S)-2-[3-(2-Benzenesulfonylphenyl)ureido]-3-{4-[(3,5-dichloropyridine-4-carbonyl)amino]phenyl}propionic acid] | < 0.1 |
| CN(C(=O)N[C@@H](Cc1ccc(NC(=O)c2c(Cl)cccc2Cl)cc1)C(=O)O)c1ccccc1C(=O)N(C)C1CCCCC1 [Example 32] | < 0.1 |
| Cc1ccc(C(=O)Nc2ccc(C[C@H](NC(=O)Nc3ccccc3S(=O)(=O)c3ccccc3)C(=O)O)cc2)c(Cl)n1 [Example 103, (S)-2-[3-(2-Benzenesulfonylphenyl)ureido]-3-(4-{[1-(2-chloro-6-methylpyridin-3-yl)methanoyl]amino}phenyl)propionic acid] | < 0.1 |
| CN(C(=O)c1ccccc1NC(=O)N[C@@H](Cc1ccc(NC(=O)c2c(Cl)cncc2Cl)cc1)C(=O)O)C1CCCCC1 [Example 80] | < 0.1 |
| O=C(Nc1ccccc1S(=O)(=O)C1CCCC1)N[C@@H](Cc1ccc(NC(=O)c2c(Cl)cncc2Cl)cc1)C(=O)O [Example 92, (S)-2-[3-(2-Cyclopentanesulfonylphenyl)ureido]-3-(4-{[1-(3,5-dichloropyridin-4-yl)methanoyl]amino}phenyl)propionic acid] | < 0.1 |
| O=C(Nc1ccccc1S(=O)(=O)c1ccccc1)N[C@@H](Cc1ccc(NC(=O)c2c(Br)cncc2Br)cc1)C(=O)O [Example 106, (S)-2-[3-(2-Benzenesulfonylphenyl)ureido]-3-(4-{[1-(3,5-dibromopyridin-4-yl)-methanoyl]amino}phenyl)propionic acid] | < 0.1 |
| O=C(Nc1ccccc1S(=O)(=O)N1CCCCC1)N[C@@H](Cc1ccc(Oc2nccc3cnccc23)cc1)C(=O)O [Example 136, (S)-3-[4-([2,6]Naphthyridin-1-yloxy)phenyl]-2-{3-[2-(piperidine-1-sulfonyl)phenyl]ureido}propionic acid] | < 0.1 |
| Cc1ccc(S(=O)(=O)c2ccc(Cl)c(NC(=O)N[C@@H](Cc3ccc(NC(=O)c4c(Cl)cccc4Cl)cc3)C(=O)O)c2)cc1 [Example 54, (S)-2-{3-[2-Chloro-5-(toluene-4-sulfonyl)phenyl]ureido}-3-[4-(2,6-dichlorobenzoylamino)phenyl]propionic acid] | < 0.1 |
| O=C(Nc1cc(Cl)ccc1S(=O)(=O)c1ccccc1)N[C@@H](Cc1ccc(NC(=O)c2c(Cl)cncc2Cl)cc1)C(=O)O [Example 68, (S)-2-[3-(2-Benzenesulfonyl-5-chlorophenyl)ureido]-3-{4-[(3,5-dichloropyridine-4-carbonyl)amino]phenyl}propionic acid] | < 0.1 |
| O=C(Nc1ccccc1S(=O)(=O)N1CCCCC1)N[C@@H](Cc1ccc(Oc2nccc3ccncc23)cc1)C(=O)O [Example 140, (S)-3-[4-([2,7]Naphthyridin-1-yloxy)phenyl]-2-{3-[2-(piperidine-1-sulfonyl)phenyl]ureido}propionic acid] | < 0.1 |
| CN(C1CCCCC1)S(=O)(=O)c1ccccc1NC(=O)N[C@@H](Cc1ccc(NC(=O)c2c(Cl)cncc2Cl)cc1)C(=O)O [Example 66] | < 0.1 |
| O=C(Nc1cccc(C(=O)c2ccccc2)c1)N[C@@H](Cc1ccc(NC(=O)c2c(Cl)cncc2Cl)cc1)C(=O)O [Example 77, (S)-3(4-{[1-(3,5-Dichloropyridin-4-yl)methanoyl]amino}phenyl)-2-{3-[3-(1-phenylmethanoyl)phenyl]ureido}propionic acid] | < 0.1 |
| O=C(Nc1ccccc1Sc1ccccc1)N[C@@H](Cc1ccc(NC(=O)c2c(Cl)cccc2Cl)cc1)C(=O)O [Example 44, (S)-3-[4-(2,6-Dichlorobenzoylamino)phenyl]-2-[3-(2-phenylsulfanylphenyl)ureido]propionic acid] | < 0.1 |
| CN(C(=S)N[C@@H](Cc1ccc(NC(=O)c2c(Cl)cncc2Cl)cc1)C(=O)O)c1ccccc1Cc1ccccc1 [Example 144, (S)-2-[3-(2-Benzylphenyl)-3-methylthioureido]-3-(4-{[1-(3,5-dichloropyridin-4-yl)methanoyl]amino}phenyl)propionic acid] | < 0.1 |
